# In publication PMC7181660, “A novel specific PERK activator reduces toxicity and extends survival in Huntington's disease models” (Scientific Reports, 2020):
# Like-named read-outs stand apart in the source and are kept apart here.
# Legend:
# Experiment in all cases: biochemical
# Type in all cases: biochemical
# panel of 391 kinases [1] = target: panel of 391 kinases (Homo sapiens, UniProt Q6P3R8); details: NEK5, MK-28 1 µM, ATP 1 µM
# panel of 391 kinases [2] = target: panel of 391 kinases (Homo sapiens, UniProt Q96SB4); details: SRPK1, MK-28 1 µM, ATP 1 µM
# panel of 391 kinases [3] = target: panel of 391 kinases (Homo sapiens, UniProt Q9P2K8); details: kinase EIF2AK4, compound at 1 µM, single dose in duplicates, 1 µM ATP
# panel of 391 kinases [4] = target: panel of 391 kinases (Homo sapiens, UniProt Q96RG2); details: PASK, MK-28 1 µM, ATP 1 µM
# panel of 391 kinases [5] = target: panel of 391 kinases (Homo sapiens, UniProt Q96S53); details: TESK2, MK-28 1 µM, ATP 1 µM
# panel of 391 kinases [6] = target: panel of 391 kinases (Homo sapiens, UniProt O14920); details: IKKb/IKBKB, MK-28 1 µM, ATP 1 µM
# panel of 391 kinases [7] = target: panel of 391 kinases (Homo sapiens, UniProt P49137); details: MAPKAPK2, MK-28 1 µM, ATP 1 µM
# panel of 391 kinases [8] = target: panel of 391 kinases (Homo sapiens, UniProt P11309); details: PIM1, MK-28 1 µM, ATP 1 µM
# panel of 391 kinases [9] = target: panel of 391 kinases (Homo sapiens, UniProt Q99683); details: ASK1/MAP3K5, MK-28 1 µM, ATP 1 µM
# panel of 391 kinases [10] = target: panel of 391 kinases (Homo sapiens, UniProt P31749); details: AKT1, MK-28 1 µM, ATP 1 µM
# panel of 391 kinases [11] = target: panel of 391 kinases (Homo sapiens, UniProt Q9UPZ9); details: LCK2/ICK, MK-28 1 µM, ATP 1 µM
# panel of 391 kinases [12] = target: panel of 391 kinases (Homo sapiens, UniProt P34947); details: GRK5, MK-28 1 µM, ATP 1 µM
# panel of 391 kinases [13] = target: panel of 391 kinases (Homo sapiens, UniProt O43318); details: TAK1, MK-28 1 µM, ATP 1 µM
# panel of 391 kinases [14] = target: panel of 391 kinases (Homo sapiens, UniProt P53779); details: JNK3, MK-28 1 µM, ATP 1 µM
# panel of 391 kinases [15] = target: panel of 391 kinases (Homo sapiens, UniProt P49760); details: CLK2, MK-28 1 µM, ATP 1 µM
# panel of 391 kinases [16] = target: panel of 391 kinases (Homo sapiens, UniProt Q15375); details: EPHA7, MK-28 1 µM, ATP 1 µM
# panel of 391 kinases [17] = target: panel of 391 kinases (Homo sapiens, UniProt Q9Y463); details: DYRK1B, MK-28 1 µM, ATP 1 µM
# panel of 391 kinases [18] = target: panel of 391 kinases (Homo sapiens, UniProt P43403); details: ZAP70, MK-28 1 µM, ATP 1 µM
# panel of 391 kinases [19] = target: panel of 391 kinases (Homo sapiens, UniProt Q13470); details: TNK1, MK-28 1 µM, ATP 1 µM
# panel of 391 kinases [20] = target: panel of 391 kinases (Homo sapiens, UniProt P36888); details: FLT3, MK-28 1 µM, ATP 1 µM
# panel of 391 kinases [21] = target: panel of 391 kinases (Homo sapiens, UniProt Q00535); details: MK-28 1 µM, ATP 1 µM; for remaining activity at 1 µM: read-out: % Enzyme Activity (relative to DMSO controls)
# panel of 391 kinases [22] = target: panel of 391 kinases (Homo sapiens, UniProt Q15746); details: MLCK/MYLK, MK-28 1 µM, ATP 1 µM
# panel of 391 kinases [23] = target: panel of 391 kinases (Homo sapiens, UniProt Q9H4B4); details: PLK3, MK-28 1 µM, ATP 1 µM
# panel of 391 kinases [24] = target: panel of 391 kinases (Homo sapiens, UniProt Q9NWZ3); details: IRAK4, MK-28 1 µM, ATP 1 µM
# panel of 391 kinases [25] = target: panel of 391 kinases (Homo sapiens, UniProt Q13873); details: BMPR2, MK-28 1 µM, ATP 1 µM
# panel of 391 kinases [26] = target: panel of 391 kinases (Homo sapiens, UniProt P50613); details: CDK7/cyclin H, MK-28 1 µM, ATP 1 µM
# [27] = read-out: % Enzyme Activity (relative to DMSO controls)
smiles,measurement,setting,value
CN(/N=C\c1ccc(O)c(O)c1)c1nc(-c2ccccc2)cc(-c2ccccc2)n1 [MK-28],% Enzyme Activity (relative to DMSO controls),panel of 391 kinases [1],79.32%
same,remaining activity at 1 µM,panel of 391 kinases [1]; [27],81.8%
same,% Enzyme Activity (relative to DMSO controls),panel of 391 kinases [2],103.25%
same,remaining activity at 1 µM,panel of 391 kinases [2]; [27],104%
same,% Enzyme Activity (relative to DMSO controls),panel of 391 kinases [3],87.73%
same,remaining activity at 1 µM,panel of 391 kinases [3]; [27],88.1%
same,% Enzyme Activity (relative to DMSO controls),panel of 391 kinases [4],91.44%
same,remaining activity at 1 µM,panel of 391 kinases [4]; [27],95.4%
same,% Enzyme Activity (relative to DMSO controls),panel of 391 kinases [5],99.48%
same,remaining activity at 1 µM,panel of 391 kinases [5]; [27],101%
same,% Enzyme Activity (relative to DMSO controls),panel of 391 kinases [6],96.13%
same,remaining activity at 1 µM,panel of 391 kinases [6]; [27],96.9%
same,% Enzyme Activity (relative to DMSO controls),panel of 391 kinases [7],93.81%
same,remaining activity at 1 µM,panel of 391 kinases [7]; [27],94%
same,% Enzyme Activity (relative to DMSO controls),panel of 391 kinases [8],100.72%
same,remaining activity at 1 µM,panel of 391 kinases [8]; [27],101%
same,% Enzyme Activity (relative to DMSO controls),panel of 391 kinases [9],97.76%
same,remaining activity at 1 µM,panel of 391 kinases [9]; [27],100%
same,% Enzyme Activity (relative to DMSO controls),panel of 391 kinases [10],95.66%
same,remaining activity at 1 µM,panel of 391 kinases [10]; [27],96.7%
same,% Enzyme Activity (relative to DMSO controls),panel of 391 kinases [11],99.01%
same,remaining activity at 1 µM,panel of 391 kinases [11]; [27],99.2%
same,% Enzyme Activity (relative to DMSO controls),panel of 391 kinases [12],103.49%
same,remaining activity at 1 µM,panel of 391 kinases [12]; [27],104%
same,% Enzyme Activity (relative to DMSO controls),panel of 391 kinases [13],97.66%
same,remaining activity at 1 µM,panel of 391 kinases [13]; [27],97.9%
same,% Enzyme Activity (relative to DMSO controls),panel of 391 kinases [14],94.93%
same,remaining activity at 1 µM,panel of 391 kinases [14]; [27],99.6%
same,% Enzyme Activity (relative to DMSO controls),panel of 391 kinases [15],103.52%
same,remaining activity at 1 µM,panel of 391 kinases [15]; [27],108%
same,% Enzyme Activity (relative to DMSO controls),panel of 391 kinases [16],96.58%
same,remaining activity at 1 µM,panel of 391 kinases [16]; [27],98.6%
same,% Enzyme Activity (relative to DMSO controls),panel of 391 kinases [17],88.09%
same,remaining activity at 1 µM,panel of 391 kinases [17]; [27],89.9%
same,% Enzyme Activity (relative to DMSO controls),panel of 391 kinases [18],95.37%
same,remaining activity at 1 µM,panel of 391 kinases [18]; [27],97.8%
same,% Enzyme Activity (relative to DMSO controls),panel of 391 kinases [19],104.14%
same,remaining activity at 1 µM,panel of 391 kinases [19]; [27],108%
same,% Enzyme Activity (relative to DMSO controls),panel of 391 kinases [20],95.61%
same,remaining activity at 1 µM,panel of 391 kinases [20]; [27],95.6%
same,% Enzyme Activity (relative to DMSO controls),panel of 391 kinases [21]; CDK5/p25,93.55%
same,remaining activity at 1 µM,panel of 391 kinases [21]; CDK5/p25,93.6%
same,% Enzyme Activity (relative to DMSO controls),panel of 391 kinases [21]; CDK5/p35,96.39%
same,remaining activity at 1 µM,panel of 391 kinases [21]; CDK5/p35,96.6%
same,% Enzyme Activity (relative to DMSO controls),panel of 391 kinases [22],91.99%
same,remaining activity at 1 µM,panel of 391 kinases [22]; [27],93%
same,% Enzyme Activity (relative to DMSO controls),panel of 391 kinases [23],87.19%
same,remaining activity at 1 µM,panel of 391 kinases [23]; [27],91.2%
same,% Enzyme Activity (relative to DMSO controls),panel of 391 kinases [24],124.00%
same,remaining activity at 1 µM,panel of 391 kinases [24]; [27],129%
same,% Enzyme Activity (relative to DMSO controls),panel of 391 kinases [25],101.00%
same,remaining activity at 1 µM,panel of 391 kinases [25]; [27],105%
same,% Enzyme Activity (relative to DMSO controls),panel of 391 kinases [26],106.19%
same,remaining activity at 1 µM,panel of 391 kinases [26]; [27],108%
